Test results published in US11414424B2, “Cardiac sarcomere inhibitors” (Cytokinetics, Inc., priority 2018, dated 2022).

Tested on: bovine cardiac myofibrils
Assay: Myofibril assay: PK/LDH-coupled steady-state ATPase activity of skinned bovine cardiac myofibrils
Type: biochemical
Conditions: Ca2+ activating to 75% of maximal rate
Summary of the method: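 Steady-state ATPase of detergent-skinned bovine left-ventricular myofibrils (1 mg/mL), PK/LDH-coupled NADH read at 340 nm, in PIPES/MgCl2 buffer pH 6.8 with 50 μM ATP, 0.6 mM EGTA and CaCl2 set for 50% or 75% activation. Inhibition of activity measured.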

`CNC(=O)N1CC2(C1)C(=O)N(C1CCCC1)CC(=O)N2Cc1ccc(C(F)(F)F)cc1` [Compound 70, 8-cyclopentyl-N-methyl-6,9-dioxo-5-(4-(trifluoromethyl)benzyl)-2,5,8-triazaspiro[3.5]-nonane-2-carboxamide] and `CNC(=O)N1CC2(C1)C(=O)N(c1ccc(C3CC3)cc1)CC(=O)N2Cc1ccc(C(F)(F)F)cc1` [Compound 158, 8-(4-cyclopropylphenyl)-N-methyl-6,9-dioxo-5-(4-(trifluoromethyl)benzyl)-2,5,8-triazaspiro[3.5]-nonane-2-carboxamide] are within 1.5-fold of each other in “CDMF75 IC15” value: 9.5 µM for the first, 9.7 µM for the second.

First: CC(C)N1CC(=O)N(Cc2ccc(C(F)(F)F)cc2)C(c2ccc(Cl)cc2)C1=O (stereo not drawn) [Compound 309, 3-(4-chlorophenyl)-1-isopropyl-4-(4-(trifluoro-methyl)benzyl)piperazine-2,5-dione]
Second: O=C1C(CO)N(Cc2ccc(C(F)(F)F)cc2)C(=O)CN1c1ncc(Cl)cc1F (single isomer, unassigned) [Compound 857A, 1-(5-chloro-3-fluoropyridin-2-yl)-3-(hydroxymethyl)-4-(4-(trifluoromethyl)benzyl)piperazine-2,5-dione]
The “CDMF75 IC15” value of the first is 1.9-fold lower: 2.8 µM for the first, 5.3 µM for the second.

Compared with `Cc1cncc(N2CC3(C2)C(=O)N(C(C)C)CC(=O)N3Cc2ccc(Cl)cc2)c1` [Compound 16, 5-(4-chlorobenzyl)-8-isopropyl-2-(5-methyl-pyridin-3-yl)-2,5,8-triazaspiro[3.5]nonane-6,9-dione], `CC(C)N1CC(=O)N(Cc2ccc(Cl)cc2)C2(CN(c3cnc(Cl)cn3)C2)C1=O` [Compound 56, 5-(4-chlorobenzyl)-2-(5-chloropyrazin-2-yl)-8-isopropyl-2,5,8-triazaspiro[3.5]nonane-6,9-dione] is 6.8-fold higher in “CDMF75 IC15” value: 2.7 µM for the first, 18.3 µM for the second.

`O=C1C(C23CC(O)(C2)C3)N(Cc2ccc(Cl)cc2)C(=O)CN1c1ncc(Cl)cc1F` (stereo not drawn) [Compound 841, 1-(5-chloro-3-fluoropyridin-2-yl)-4-(4-chlorobenzyl)-3-(3-hydroxybicyclo[1.1.1]-pentan-1-yl)piperazine-2,5-dione] and `COC(=O)C12CC(C3C(=O)N(c4ncc(Cl)cc4F)CC(=O)N3Cc3ccc(F)cc3)(C1)C2` (stereo not drawn) [Compound 780, methyl 3-(4-(5-chloro-3-fluoropyridin-2-yl)-1-(4-fluorobenzyl)-3,6-dioxopiperazin-2-yl)bicyclo[1.1.1]pentane-1-carboxylate] are within 1.5-fold of each other in “CDMF75 IC15” value: 2.7 µM for the first, 3.6 µM for the second.

Compared with `CC(C)N1CC(=O)N(Cc2ccc(C(F)(F)F)cc2)C2(CCN(C(=O)NC(C)(C)C)C2)C1=O` (stereo not drawn) [Compound 112, N-(tert-butyl)-9-isopropyl-7,10-dioxo-6-(4-(trifluoromethyl)benzyl)-2,6,9-triazaspiro[4.5]-decane-2-carboxamide], `CC(C)N1CC(=O)N(Cc2ccc(C(F)(F)F)cc2)C2(CCN(C(=O)Nc3cnn(C)c3)C2)C1=O` (stereo not drawn) [Compound 114, 9-isopropyl-N-(1-methyl-1H-pyrazol-4-yl)-7,10-dioxo-6-(4-(trifluoromethyl)benzyl)-2,6,9-triazaspiro[4.5]decane-2-carboxamide] is 4.2-fold lower in “CDMF75 IC15” value: 33.0 µM for the first, 7.9 µM for the second.

Compared with `CC(C)(O)C1CC2(C1)C(=O)N(c1ccc(C#N)cc1F)CC(=O)N2Cc1ccc(C(F)(F)F)cc1` (stereo not drawn) [Compound 479B], `CNc1cccc(N2CC3(C2)C(=O)N(c2ccc(C#N)cc2F)CC(=O)N3Cc2ccc(C(F)(F)F)cc2)c1` [Compound 536, 3-fluoro-4-[2-[3-(methylamino)phenyl]-6,9-dioxo-5-[[4-(trifluoromethyl)phenyl]methyl]-2,5,8-triazaspiro[3.5]nonan-8-yl]benzonitrile] is 14-fold lower in “CDMF75 IC15” value: 2.8 µM for the first, 0.2 µM for the second.

`C[C@@H](c1ccc(C(F)(F)F)cc1)N1C(=O)CN(c2ncc(Cl)cc2F)C(=O)C12CN(C=O)C2` [Compound 620, (S)-8-(5-chloro-3-fluoro-pyridin-2-yl)-6,9-dioxo-5-(1-(4-(trifluoromethyl)-phenyl)ethyl)-2,5,8-triazaspiro[3.5]nonane-2-carbaldehyde] and `CNC(=O)N1CC2(C1)C(=O)N(c1ncc(Cl)cc1F)CC(=O)N2[C@@H](C)c1ccc(Cl)cc1` [Compound 563, (S)-8-(5-chloro-3-fluoro-pyridin-2-yl)-5-(1-(4-chlorophenyl)ethyl)-N-methyl-6,9-dioxo-2,5,8-triazaspiro[3.5]nonane-2-carboxamide] are within 1.5-fold of each other in “CDMF75 IC15” value: 1.8 µM for the first, 2.2 µM for the second.

First: CSCCC1C(=O)N(c2ncc(Cl)cc2F)CC(=O)N1Cc1ccc(C(F)(F)F)cc1 (stereo not drawn) [Compound 610, 1-(5-chloro-3-fluoropyridin-2-yl)-3-(2-(methylthio)-ethyl)-4-(4-(trifluoro-methyl)-benzyl)piperazine-2,5-dione]
Second: Cc1cc(Cl)cnc1N1CC(=O)N(Cc2ccc(C(F)(F)F)cc2)C(C2(C)COC2)C1=O (stereo not drawn) [Compound 652, 1-(5-chloro-3-methylpyridin-2-yl)-3-(3-methyloxetan-3-yl)-4-(4-(trifluoromethyl)-benzyl)piperazine-2,5-dione]
The “CDMF75 IC15” value of the first is 5.3-fold lower: 1.7 µM for the first, 9.0 µM for the second.

`N#Cc1ccc(N2CC(=O)N(Cc3ccc(C(F)(F)F)cc3)C3(CN(c4ccc(C#N)cn4)C3)C2=O)cc1` [Compound 192, 6-(8-(4-cyanophenyl)-6,9-dioxo-5-(4-(trifluoromethyl)benzyl)-2,5,8-triazaspiro[3.5]nonan-2-yl)nicotinonitrile] and `N#Cc1ccc(N2CC(=O)N(Cc3ccc(C(F)(F)F)cc3)C3(CN(C=O)C3)C2=O)cc1F` [Compound 194, 2-fluoro-4-(2-formyl-6,9-dioxo-5-(4-(trifluoromethyl)benzyl)-2,5,8-triazaspiro[3.5]nonan-8-yl)benzonitrile] are within 1.5-fold of each other in “CDMF75 IC15” value: 0.6 µM for the first, 0.4 µM for the second.

First: CC(C)N1C(=O)C2(CN(c3ccccc3)C2)N(Cc2ccc(Cl)cc2)C(=O)C1C (stereo not drawn) [Compound 329, 5-(4-chlorobenzyl)-8-isopropyl-7-methyl-2-phenyl-2,5,8-triazaspiro-[3.5]nonane-6,9-dione]
Second: CC(C)N1CC(=O)N(Cc2ccc(Cl)cc2)C2(CN(c3ccc(F)cn3)C2)C1=O [Compound 17, 5-(4-chlorobenzyl)-2-(5-fluoropyridin-2-yl)-8-isopropyl-2,5,8-triazaspiro[3.5]nonane-6,9-dione]
The “CDMF75 IC15” value of the first is 5.5-fold higher: 9.3 µM for the first, 1.7 µM for the second.

First: N#Cc1ccc(N2CC(=O)N(Cc3ccc(C(F)(F)F)cc3)C3(CN(C(=O)NC4CC4)C3)C2=O)cc1F [Compound 199, 8-(4-cyano-3-fluorophenyl)-N-cyclopropyl-6,9-dioxo-5-(4-(trifluoromethyl)benzyl)-2,5,8-triazaspiro[3.5]nonane-2-carboxamide]
Second: COC(=O)N1CC2(C1)C(=O)N(c1ccc(C#N)c(F)c1)CC(=O)N2Cc1ccc(C(F)(F)F)cc1 [Compound 196, methyl 8-(4-cyano-3-fluorophenyl)-6,9-dioxo-5-(4-(trifluoromethyl)benzyl)-2,5,8-triazaspiro[3.5]nonane-2-carboxylate]
The “CDMF75 IC15” value of the first is 5.7-fold higher: 2.3 µM for the first, 0.4 µM for the second.

Compared with `CC(=O)N1CC(C2C(=O)N(c3ncc(Cl)cc3C)CC(=O)N2Cc2ccc(C(F)(F)F)cc2)C1` (stereo not drawn) [Compound 653, 3-(1-acetylazetidin-3-yl)-1-(5-chloro-3-methylpyridin-2-yl)-4-(4-(trifluoromethyl)-benzyl)piperazine-2,5-dione], `N#Cc1ccc(N2CC(=O)N(Cc3ccc(F)cc3)C(C3COC3)C2=O)c(F)c1` (stereo not drawn) [Compound 706, 3-fluoro-4-(4-(4-fluoro-benzyl)-3-(oxetan-3-yl)-2,5-dioxopiperazin-1-yl)benzonitrile] is 4.4-fold lower in “CDMF75 IC15” value: 19.9 µM for the first, 4.5 µM for the second.

First: CC(C)N1CC(=O)N(Cc2ccc(Cl)cc2)C2(CN(c3nccs3)C2)C1=O [Compound 22, 5-(4-chlorobenzyl)-8-isopropyl-2-(thiazol-2-yl)-2,5,8-triazaspiro[3.5]-nonane-6,9-dione]
Second: CC(C)N1CC(=O)N(Cc2ccc(Cl)cc2)C2(CN(c3cc(Cl)cnn3)C2)C1=O [Compound 60, 5-(4-chlorobenzyl)-2-(5-chloropyridazin-3-yl)-8-isopropyl-2,5,8-triazaspiro[3.5]nonane-6,9-dione]
The “CDMF75 IC15” value of the first is 3.5-fold lower: 4.1 µM for the first, 14.3 µM for the second.

Compared with `COc1ccc(N2CC(=O)N(Cc3ccc(Cl)cc3)[C@]3(CCN(C(C)=O)C3)C2=O)nc1` [Compound 225, (S)-2-acetyl-6-(4-chloro-benzyl)-9-(5-methoxy-pyridin-2-yl)-2,6,9-triazaspiro[4.5]decane-7,10-dione], `CC(=O)N1CCC2(C1)C(=O)N(c1ccc(C#N)cc1F)CC(=O)N2Cc1ccc(Cl)cc1` (stereo not drawn) [Compound 205, 4-(2-acetyl-6-(4-chlorobenzyl)-7,10-dioxo-2,6,9-triazaspiro[4.5]decan-9-yl)-3-fluorobenzonitrile] is 42-fold lower in “CDMF75 IC15” value: 29.6 µM for the first, 0.7 µM for the second.

Going from `O=C1CN(c2ncc(Cl)cc2F)C(=O)C2(CC3(COC3)C2)N1Cc1ccc(C(F)F)cc1` [Compound 814, 10-(5-chloro-3-fluoro-pyridin-2-yl)-7-(4-(difluoromethyl)benzyl)-2-oxa-7,10-diazadispiro-[3.1.56.14]dodecane-8,11-dione] to `COCC(C)N1CC(=O)N(Cc2ccc(Cl)cc2)C2(CCN(c3ccccn3)C2)C1=O` (stereo not drawn) [Compound 86, 6-(4-chlorobenzyl)-9-(1-methoxypropan-2-yl)-2-(pyridin-2-yl)-2,6,9-triazaspiro[4.5]decane-7,10-dione], the “CDMF75 IC15” value rises from 0.8 µM to 8.6 µM (11-fold).

In the case of `CNC(=O)c1cc(N2CC3(C2)C(=O)N(C(C)C)CC(=O)N3Cc2ccc(Cl)cc2)ccn1` [Compound 38, 4-(5-(4-chlorobenzyl)-8-isopropyl-6,9-dioxo-2,5,8-triazaspiro-[3.5]nonan-2-yl)-N-methylpicolinamide], the “CDMF75 IC15” value is reported as 12.4 µM.

`COCCNC(=O)N1CCC2(C1)C(=O)N(C(C)C)CC(=O)N2Cc1ccc(Cl)cc1` (stereo not drawn) [Compound 387, 6-(4-chlorobenzyl)-9-isopropyl-N-(2-methoxy-ethyl)-7,10-dioxo-2,6,9-triazaspiro[4.5]decane-2-carboxamide] was tested, and the “CDMF75 IC15” value was over 39 µM.
With `O=C1C(C2CC(O)C2)N(Cc2ccc(F)cc2)C(=O)CN1c1ccc(Cl)cc1F` (single isomer, unassigned) [Compound 866D, 1-(4-chloro-2-fluorophenyl)-4-(4-fluorobenzyl)-3-(3-hydroxycyclobutyl)piperazine-2,5-dione] the “CDMF75 IC15” value was over 39 µM.
